According to patent US12692532B2, “Compounds and methods for amine oxidase imaging” (ETH ZURICH, priority 2019, dated 2026):
Non-standard residues stand in square brackets, D forms with d. Residues, ends and D or L forms follow the SMILES beside them. *: point of attachment. X1 = Cc1c(CC(=O)*)c(=O)oc2c(F)c(OCCCN)c(F)cc12; X2 = Cc1c(CC(=O)*)c(=O)oc2c(F)c(O)c(F)cc12; dCha = N[C@H](CC1CCCCC1)C(=O)O; Ahx = NCCCCCC(=O)O

Key:
[1] = system: LOX activity in mouse tissue homogenate; assay: Ex vivo fluorescence assay of amine oxidase (LOX) activity in mouse tissue homogenate; assay type: biochemical; settings: for fluorescent signal (RFU) with skin homogenate, comparison with oLOX probe: 10 μM, 24 h at 37° C., each at its absorbance and emission maximum
Protocol: (§1) Fluorescence experiments for determining amine oxidase activity of a given enzyme are conducted using a fluorescence plate reader and a standard 96-well black polystyrene plate with a clear flat bottom. To the plate 150 μL of the following solutions are added to individual wells, e.g. with at least three replicates: buffer (e.g. 25 mM at pH 7.5), a solution in buffer of the amine-oxidase reactive probe, e.g. Compound 2, (e.g. at 100 μM), a buffered solution of the sample containing an amine-oxidase at the desired concentration(s) (e.g. 40 μg/mL), and a buffered solution of the sample containing amine-oxidases with addition of the probe, e.g. Compound 2, (e.g. at 100 μM). The plate is incubated in the dark at 37° C. for a period of time between 15 min and 24 hours before measurements are taken. Fluorescence is measured by exciting the unmasked probe at the absorbance maximum (e.g. 360 nm) or at 405 nm, and measuring the fluorescence at the emission maximum of the probe, for example at 460 nm. Enzyme activity is observed as fluorescence measured relative to the untreated controls, for example as expressed in relative fluorescent units (RFUs). […] Any change, optionally any statistically relevant change, in fluorescence relative to the untreated controls is indicative of amine oxidase activity.
Skin tissue used for enzymatic analysis of LOX activity was harvested (1 cm×1 cm) and placed in 2 ml of ice-cold PBS. Skin tissue was homogenized using an Ultra-TURRAX homogenizer (KA®-Werke GmbH & CO. KG, Staufen, Germany) and samples were spun at 2000×g to pellet out tissue debris. The supernatant was further purified using a 0.2 μm filter. Tissue homogenates were then evaluated with regard to total in solution protein retrieval using a nanospec absorbance measurement standardized to BSA at 1 mg/mL (Pierce™, Thermo Fisher Scientific Inc, Waltham, USA). Homogenates were diluted to appropriate concentrations (e.g. 1 mg/ml total protein) with 25 mM PIPES, 0.5% Triton X-100 (Sigma Aldrich, St Louis, […], USA) and pre-incubated with the probe (10 μM or 100 μM) at 37° C. in the dark for the designated period of time prior to fluorescence measurements. The resultant fluorescence was then measured using a Tecan Spark 10M Multi-Mode Microplate Reader (Tecan, Männedorf, Switzerland) at ambient temperature with a filter for excitation/emission (e.g. 405/460 nm respectively) as defined for the experiment. Activity is observed as fluorescence measured, and is expressed in relative fluorescent units (RFUs). Graphical presentation and statistical analysis were carried out using Graphpad Prism 7 software, (GraphPad Software, Inc., San Diego, USA.) with statistical significance determined as p<0.05.

[2] = system: amine-oxidase (LOX) in skin wound; assay: In vivo intradermal administration to mice, histological analysis of skin wound; settings: for fluorescence in cross section of wound after in vivo administration: 100 μM, 50 μL intradermally, skin harvested after five days
Protocol: Animals: Mice were housed and fed according to Swiss guidelines and all animal experiments were approved by the local veterinary authorities (Kantonales Veterinäramt Zürich). All mice used for these experiments are on a C57BL/6 background. Administration of Compounds 3, 4 and 5 into skin: Peptide solutions at 100 μM were brought to room temperature for 30 min. Male or female mice at 8 weeks of age were anesthetized by intraperitoneal injection of ketamine/xylazine (100 mg ketamine/5-10 mg xylazine per kg body weight), skin shaved and an injection of 50 μL was made intradermally into the back skin. Mice were housed for an additional five days and then skin harvested for histological analysis.
Skin tissue used for histology was harvested and immediately embedded and frozen in tissue freezing Medium® (Leica Biosystems, Wetzlar, Germany). Tissue sections (7 μM) were fixed using ice-cold acetone for 10 min at −20° C. and stained with propidium iodide to visualize nuclei. Images were taken using a 20× objective. For immunofluorescent analysis of collagen, antibodies against collagen I (Southern Biotech, Birmingham, AL, USA; 1310-01) or collagen III (Abcam, Cambridge, UK, ab7778) were used. Fixed tissue sections were incubated with 1% bovine serum albumin (BSA) in PBS for 30 min followed by collagen I (1:400 dilution in 1% BSA) or collagen III (1:800 dilution in 1% BSA) antibodies for 60 min at room temperature. After washing (3×5 min PBS), secondary antibodies (anti-rabbit AF488 (711-547-003) or anti-goat AF488 (705-545-147), Jackson ImmunoResearch) were incubated on the tissues for 30 min at room temperature (both at 1:400 dilution in 1% BSA) and nuclei visualized using propidium iodide. All images were taken using a 20× objective.

SSC13 ear tumor = assay: Staining of SSC13 ear tumor tissue sections; settings: 100 μM in PBS, 4 hours at 37° C.
Protocol: Skin tissue used for histology was harvested and immediately embedded and frozen in tissue freezing Medium® (Leica Biosystems, Wetzlar, Germany). Tissue sections (7 uM) were treated by the addition of 50 μL of each compound at 100 μM in PBS (Compounds 3, 4, 5, or 6) by pipette to completely cover the surface of the section, incubated at 37° C. for 4 hours in the dark, and washed 2× with PBS. Sections were fixed using ice-cold acetone for 10 min at −20° C. and stained with propidium iodide to visualize nuclei. Images were taken using a 20× objective.
For immunofluorescent analysis of collagen, antibodies against collagen I (Southern Biotech, 1310-01) or collagen III (Abcam, ab7778) were used. Fixed tissue sections were incubated with collagen I or collagen III antibodies for 60 min at room temperature. After washing, secondary antibodies (anti-rabbit AF488 (711-547-003) or anti-goat AF488 (705-545-147), Jackson ImmunoResearch) were incubated on the tissues for 30 min at room temperature and nuclei visualized using propidium iodide. All images were taken using a 20× objective.

[3] = system: MAO A/MAO B in MCF-7 cells; assay: Confocal microscopy of MCF-7 cells treated with MAO probes; assay type: cell-based; set-up: blue channel (405 nm) fluorescence of the probe / colocalization with MitoTracker Red (405 nm and 561 nm overlay): dose or concentration left out as unconfirmed
Protocol: Cell culture: MCF-7 and SY5Y cells were obtained from the Health Protection Agency (www.HPA.org.uk) or the American Type Culture Collection. […] Culture medium DMEM high glucose, F-12KTM, L-glutamine (200 mM), penicillin (10.000 U/mL), streptomycin (10 mg/mL), and trypan blue solution were purchased from Sigma, Invitrogen, ATCC or BioConcept. Trypsin-EDTA (0.05%/0.02%) in Ca2+- and Mg2+-deficient phosphate buffered saline (PBS) (1:250) was purchased from Amimed. PBS (pH 7.4) was purchased from Invitrogen. […] Cell culture flasks as well as serological pipettes were purchased from BD Biosciences and Sarstedt. Ethylenediaminetetraacetic acid (EDTA) was purchased from Sigma-Aldrich. Hoechst 33342 was purchased from Invitrogen. MitoTracker Red mitochondrial staining dye and live cell imaging solution were purchased from ThermoFisher.
Confocal Microscopy: Fluorescence images of cells were collected using a Nikon Eclipse T1 microscope equipped with a Yokogawa spinning-disk confocal scanner unit CSU-W1-T2, two sCMOS cameras (Orca Flash 4.0 V2) and a LUDL BioPrecision2 stage with piezo focus. Emission in the blue channel was filtered with a 450/50 bandpass filter, emission in the green channel was filtered with a 525/50 bandpass filter and emission in the far-red channel with a 700/75 bandpass filter. Fluorescence images were obtained using an oil-immersion objective with a magnification of 100×1.49 CFI Apo TIRF. The microscope was operated using VisiVIEW (Metamorph).
Prior to the measurement, cells were seeded at a density of 10′000 cells/well in ibidi 8-well plates and were grown for 1 day in DMEM (10% FCS) at 37° C. Afterwards cells were washed with PBS and fresh DMEM was added. Compounds were added to the cells as stock solutions in PBS to reach the final […] concentration. […] Cells were washed with PBS and the live cell imaging solution (200 μL) was added. The live cells were then immediately examined on a confocal microscope (Vistron Spinning Disk). For detection of the coumarin-activation a laser line 405 nm and for MitoTracker a laser line of 561 nm was used.

[4] = target: T1, recombinant human monoamine oxidase B (MAO-B) (Homo sapiens, UniProt P27338); assay: Fluorescence assay with recombinant monoamine oxidase B; assay type: biochemical; settings: 100 μM, 2 h at 37° C., Ex/Em 405/460 nm
T1 sequence (P27338 1-520): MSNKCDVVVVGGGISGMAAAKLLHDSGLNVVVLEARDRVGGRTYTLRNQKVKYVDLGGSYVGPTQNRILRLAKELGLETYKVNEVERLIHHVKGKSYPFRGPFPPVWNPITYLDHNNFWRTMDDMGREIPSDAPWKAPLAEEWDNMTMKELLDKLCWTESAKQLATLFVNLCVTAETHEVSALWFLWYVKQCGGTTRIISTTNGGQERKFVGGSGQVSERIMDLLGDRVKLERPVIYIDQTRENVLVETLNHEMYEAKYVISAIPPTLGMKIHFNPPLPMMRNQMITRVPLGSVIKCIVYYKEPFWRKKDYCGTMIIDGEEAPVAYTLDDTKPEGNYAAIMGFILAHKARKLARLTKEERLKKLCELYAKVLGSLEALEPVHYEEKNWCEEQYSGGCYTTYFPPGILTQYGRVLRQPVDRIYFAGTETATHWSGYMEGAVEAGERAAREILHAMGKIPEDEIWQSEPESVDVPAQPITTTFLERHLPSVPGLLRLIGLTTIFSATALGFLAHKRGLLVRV
Protocol: as §1

[5] = Absorption and emission spectroscopy, quantum yield; assay type: physicochemical; settings: excitation wavelength used for the emission scans of FIG. 2
Protocol: Absorption and emission spectroscopy. UV-visible spectra were obtained with a Cary-500 Scan spectrophotometer. The spectra were measured in quartz cuvettes (ThorLabs, CV10Q3500, Newton, NJ USA). Samples were irradiated with an LED transilluminator (Roithner Lasertechnik, LED405-06V, Vienna, Austria) emitting at a wavelength as stated with an incident intensity of ca. 2 mW cm^−2, measured with a power-meter (ThorLabs, PM100D, Newton, NJ USA) equipped with a Si photodiode detector (ThorLabs, S120VC, Newton, NJ USA). Fluorescence spectroscopy was measured in a Fluorolog 3 fluorimeter (Horiba Jobin-Yvon, Germany) fluorimeter with a cuvette sample changer for quartz cuvettes (ThorLabs, CV10Q3500F-E, Newton, NJ USA). All measurements were conducted at 25° C. in 50 mM PBS pH 7.4 buffer solution under red light for ambient illumination to avoid photoactivation.

[6] = 1 h pretreatment with Selegiline, then 10 mM probe 1 h

3-carboxy-6,8-difluoro-7-(4-((tert-butoxycarbonyl)amino)propoxy)-coumarin [Compound 1]
HPLC-MS trace of enzymatic conversion ([1]; after 18 h incubation, UV detection at 254 nm): enzymatic conversion of Compound 1 to PB

1-[ProHypGly]3-AopProGly-[ProHypGly]3—NH2 [Compound 3]
fluorescence in cross section of wound after in vivo administration [2]: fluorescence can be clearly visualized at the locations where the peptide-bound probe has been unmasked | localization of the probe in the wound ([2]; FIG. 31 (a) center): localizes the probe to collagen and elastin at the sites of LOX-mediated crosslinking | blue fluorescence of the probe in tumor section (SSC13 ear tumor): seen around the periphery of the tumor but is strongest near the side of attachment to the cartilage

Cc1c(CC(=O)NCCCCCC(=O)N[C@H](CC2CCCCC2)C(=O)N[C@H](CCCNC(=N)N)C(=O)N[C@H](CC2CCCCC2)C(=O)N[C@H](CCCNC(=N)N)C(=O)N[C@H](CC2CCCCC2)C(=O)N[C@H](CCCNC(=N)N)C(N)=O)c(=O)oc2c(F)c(O)c(F)cc12 [PB peptide, PB-Ahx-(ChaR)3—NH2, reference compound] ({X2-Ahx}-[dCha][dR][dCha][dR][dCha][dR]-NH2)
blue channel (405 nm) fluorescence of the probe ([3]; 1 h): fluorescence of the probe | colocalization with MitoTracker Red (405 nm and 561 nm overlay) ([3]; 1 h): lack colocalization

1-Ahx-[ProHypGly]7—NH2 [Compound 4]
fluorescence in cross section of wound after in vivo administration [2]: fluorescence can be clearly visualized at the locations where the peptide-bound probe has been unmasked

3-carboxy-6,8-difluoro-7-(4-((tert-butoxycarbonyl)amino)propoxy)-coumarin [Compound 2]
fluorescent signal (RFU) with MAO-B compared to controls [4]: significant increase in fluorescent signal | absorbance maximum [5]: 313 nm | fluorescent signal (RFU) with skin homogenate, comparison with oLOX probe [1]: significant increase in fluorescent signal | fluorescent signal (RFU) with heat-denatured skin homogenate ([1]; 100 μM, 1 h at 37° C., homogenate denatured 1.5 h at 90° C., Ex/Em 405/460 nm): significant decrease in fluorescent signal | fluorescent signal (RFU) with BAPN-inhibited skin homogenate ([1]; 100 μM, 1 h at 37° C., homogenate pretreated with 100 μM BAPN for 2 h, Ex/Em 405/460 nm): significant decrease in fluorescent signal | fluorescent signal (RFU) with lung, skin and liver homogenates ([1]; 100 μM, 18 h at 37° C., Ex/Em 405/460 nm): most significant increase in fluorescent signal was obtained for skin tissue type

Cc1c(CC(=O)NCCCCCC(=O)N[C@H](CC2CCCCC2)C(=O)N[C@H](CCCNC(=N)N)C(=O)N[C@H](CC2CCCCC2)C(=O)N[C@H](CCCNC(=N)N)C(=O)N[C@H](CC2CCCCC2)C(=O)N[C@H](CCCNC(=N)N)C(N)=O)c(=O)oc2c(F)c(OCCCN)c(F)cc12 [peptide MAO probe, 1-Ahx-[Char]3—NH2] ({X1-Ahx}-[dCha][dR][dCha][dR][dCha][dR]-NH2)
blue channel (405 nm) fluorescence of the probe after MAO-B inhibitor [3, 6]: very little fluorescence | colocalization with MitoTracker Red after MAO-B inhibitor [3, 6]: only poor colocalization

Cl.Cl.NCCCOc1ccc2c(c1)Oc1cc(OCCCN)ccc1C21OC(=O)c2ccccc21 [oLOX, 3′,6′-Bis(3-aminopropoxy)-3H-spiro[2-benzofuran-1,9′-xanthen]-3-one dihydrochloride, reference compound]
fluorescent signal (RFU) with skin homogenate, comparison with oLOX probe [1]: ns

1-Ahx-[ProProGly]7—NH2 [Compound 5]
fluorescence in cross section of wound after in vivo administration [2]: fluorescence can be clearly visualized at the locations where the peptide-bound probe has been unmasked
